Data: US20090042848A1, “COPPER COMPLEXES” (priority 2005, published 2009)
“Also recorded” adds a separate entry of the source.

Columns and labels:
small intestine = details: oral
stomach = test: Acute macroscopic gastric damage after oral dosing; format: in vivo, Sprague-Dawley rats; details: for Gastric Ulceration / macroscopic gastric ulcerations (in words, FIG. 8(1)): oral; for macroscopic gastric ulcerations (in words, FIG. 8(1)): IndoH 10 mg/kg or equimolar Indo dose in 2% (w/v) CMC solution
Experimental: Rats were fasted with access to water for 24 h prior to dosing and 3 hours post dosing. Three hours after administration of the test compound, the rats were euthanased and the stomach was excised and opened by incision along the greater curvature.
After the aforementioned anti-inflammatory activity experiments, the rats were immediately euthanased. Similarly, the stomach was excised and opened by incision along the greater curvature for the examination of the macroscopic ulcerations (mm^2).
Since there were no significant differences in the results obtained by the two methods, the results shown in FIG. 8(1) are those of the two methods combined.

[1] = test system: carrageenan-induced paw edema; test: Inhibition of carrageenan-induced paw edema (rat paw oedema assay); format: in vivo, Sprague-Dawley rats; details: oral
[2] = oral administration; cited from earlier work
[3] = 10 mg/kg of Indo dispersed in MCT paste
[4] = 1 mg/kg of Indo dispersed in MCT paste
[5] = 2 mg/kg of Indo dispersed in MCT paste

COc1ccc2c(c1)c(CC(=O)O)c(C)n2C(=O)c1ccc(Cl)cc1 [IndoH, Indomethacin, reference compound]
Small Intestine Ulceration (mm^2) (small intestine; [3]): 80 ± 7 mm^2 | Gastric Ulceration (stomach; [3]): 115 ± 30 mm^2 | Inhibition % [1, 3]: 54 ± 12%

CN(C)C=O.CN(C)C=O.COc1ccc2c(c1)c(CC(=O)[O-])c(C)n2C(=O)c1ccc(Cl)cc1.COc1ccc2c(c1)c(CC(=O)[O-])c(C)n2C(=O)c1ccc(Cl)cc1.COc1ccc2c(c1)c(CC(=O)[O-])c(C)n2C(=O)c1ccc(Cl)cc1.COc1ccc2c(c1)c(CC(=O)[O-])c(C)n2C(=O)c1ccc(Cl)cc1.[Cu+2].[Cu+2] [[Cu2(Indo)4(DMF)2], bis(N,N-dimethylformamide)tetrakis-μ-(O,O′-Indo)dicopper(II) complex]
gastrointestinal toxicity compared with indomethacin (in words) [2]: less gastrointestinal toxicity than indomethacin | small intestinal toxicity / ulceration (in words, FIG. 8(2)) (small intestine; equimolar Indo dose (10 mg/kg IndoH) in 2% (w/v) CMC solution, 24 h after dosing): low small intestinal toxicity | macroscopic gastric ulcerations (in words, FIG. 8(1)) (stomach): significant reductions (P<0.01) in gastric ulcerations as compared to those induced by IndoH

Bis(η^1-O-Indo)tris(pyridine)copper(II) [[Cu(Indo)2(Py)3], reference compound]
macroscopic gastric ulcerations (in words, FIG. 8(1)) (stomach): no significant difference in the gastric ulcerations induced by [Cu(Indo)2(Py)3] or IndoH | efficacy in reducing inflammation (in words, FIG. 9) ([1]; equimolar Indo dose (10 mg/kg IndoH) in 2% (w/v) CMC solution): as effective as [Cu2(Indo)4(DMF)2] in reducing inflammation

Bis(η^2-O,O′-Indo)bis(pyrrolidine)copper(II)-2-pyrrolidine monohydrate [[Cu(Indo)2(Pyrro)2]]
macroscopic gastric ulcerations (in words, FIG. 8(1)) (stomach; monohydrate): significant reductions (P<0.01) in gastric ulcerations as compared to those induced by IndoH; also recorded: significant reduction in gastric ulceration compared with [Cu2(Indo)4(DMF)2] | average gastric ulceration (stomach; second experiment, different sample precipitated from solution with diethyl ether, four rats, same dose of Indo): 21 mm^2

bis(η^2-O,O′-Indo)bis(4-picoline)copper(II) [[Cu(Indo)2(4-pic)2]]
Inhibition % [1, 4]: 28% | Inhibition % [1, 5]: 54% | Inhibition % ([1]; 2 mg/kg of Indo in 2% CMC): 16% | Inhibition % [1, 3]: 57 ± 19%

bis(η^2-O,O′-Indo)bis(imidazole)copper(II) [[Cu(Im)2(Indo)2]]
Gastric Ulceration (stomach; [4]): 2 ± 2 mm^2 | Gastric Ulceration (stomach; [5]): 3 ± 42 mm^2 | Gastric Ulceration (stomach; 2 mg/kg of Indo in 2% CMC): 3 ± 3 mm^2 | Gastric Ulceration (stomach; [3]): 55 ± 42 mm^2 | Inhibition % [1, 4]: 31% | Inhibition % [1, 5]: 39% | Inhibition % ([1]; 2 mg/kg of Indo in 2% CMC): 11% | Inhibition % [1, 3]: 45 ± 16%
